Data published in patent US20020042437A1 (priority 1997, published 2002).
Like-named read-outs stand apart in the source and are kept apart here.

Tested on: Phytophthora infestans
Assay type: in vivo
Details: single active ingredient, tomato leaves, infected next day, evaluated after 6 days

SMILES | Efficacy in % of the untreated control (0.25 ppm in the spray liquor) [%] | Efficacy in % of the untreated control (0.5 ppm in the spray liquor) [%] | Efficacy in % of the untreated control (1 ppm in the spray liquor) [%]
CO/N=C(/C(=O)OC)c1ccccc1COc1ccccc1C [Ia] | 0 | 0 | 0
CCC(C)(NC(=O)c1cc(Cl)c(C)c(Cl)c1)C(=O)CCl (stereo not drawn) [Compound II.1] | 0 | 20 | 
CNC(=O)/C(=N/OC)c1ccccc1COc1cc(C)ccc1C [Ib] | 0 |  | 
